Data published in PMC11726670, “Impact of Linker Composition on VHL PROTAC Cell Permeability” (Journal of Medicinal Chemistry, 2024).
Values after ≈ are worked out from the molar mass of the structure shown. Read-outs that look alike come from different tables or passages of the source.

Tests used:
[1] = chromatographic Log D at pH 7.5; type: physicochemical
Source text: The chromatographic lipophilicities of the nine PROTACs were therefore determined to understand to what extent the cell permeability differences may originate from lipophilicity.

in vitro = assay: in vitro
Protocol: Stock solutions of the controls and of 1–9 were prepared in DMSO at a concentration of 10 mM, then they were further diluted with PBS (pH 7.4) to a final concentration of 10 μM. Five μL of a lecithin/dodecane mixture and 300 μL of PBS (pH 7.4) solution were pipetted into each acceptor plate well, followed by addition of 300 μL of the solutions of the controls or 1–9 to each well of the donor plate. The acceptor plate was placed into the donor plate followed by incubation at 25 °C, 60 rpm for 16 h.[31] After incubation, aliquots of 50 μL from each well of the acceptor and donor plates are transferred into a 96-well plate and 200 μL of acetonitrile was added to each well. Samples were centrifuged for 20 min and compound concentrations were determined by LC/MS/MS (LC system: Shimadzu; Triple Quad).

[2] = pKa determined by photometry; type: physicochemical
Protocol: Both compounds were therefore treated as being mainly uncharged in the subsequent analyses, and the uncharged form of 7 was used in the NMR studies of its conformational ensemble in chloroform.
The pKa of 7 was determined by photometry as reported previously.[57]

ERK5 = tested on: ERK5; design: method as in PMID 33488971; settings: previously reported PROTAC; read-out: IC50 for binding to ERK5; cited from earlier work
VHL = VHL (Homo sapiens, UniProt P40337); assay: cell-based VHL binding assay (NanoBRET, live mode); settings: classified by in cellulo/in vitro ratio
Protocol: IC50 values were calculated using a four-parameter fit, with a commercial software package (Genedata Screener, Switzerland).

[3] = PBS at pH 6.5; cited from earlier work
physchem = settings: PBS, pH 6.5, aqueous buffer, kinetic from dmso stock
Source text: Before determining the cell permeability of PROTACs 1–8 we assessed their aqueous solubility.

[4] = pH 7.5, chromatographic lipophilicity, pH 7.5, read-out: LogD (pH 7.5)
[5] = pH 7.5, chromatographic, supplement, read-out: LogD, pH 7.50

Sequence of VHL (P40337 whole entry): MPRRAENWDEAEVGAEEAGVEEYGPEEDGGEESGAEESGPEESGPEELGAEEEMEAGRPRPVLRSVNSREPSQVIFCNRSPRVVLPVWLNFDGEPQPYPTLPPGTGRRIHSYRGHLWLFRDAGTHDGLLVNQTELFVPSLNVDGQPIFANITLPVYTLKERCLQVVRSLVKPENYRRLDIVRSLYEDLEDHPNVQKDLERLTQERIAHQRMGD

Compound	chromatographic logD [1, 4]	chromatographic logD [1, 5]	PAMPA, mean (LogPe, cm/s) (in vitro; 16 h, 10 μM)	PAMPA Log[Pe (cm/s)] (in vitro; 16 h, 10 μM, pH 7.4)	improvement in PAMPA permeability (in vitro; 16 h, 10 μM) [fold]	uncharged fraction ([2]; at pH 7.4, from determined pKa) [%]	partially charged fraction ([2]; at physiological pH) [%]	pKa ([2]; tertiary amine of linker, photometry)	Papp at 16 h, 10 μM (in vitro; PAMPA, pH 7.4) [×10⁻⁶ cm/s]	IC50 (ERK5) [nM]	cell permeability class (in words) (VHL)	kinetic solubility [3] [µM]	solubility (physchem) [µM]	solubility kinetic (physchem) [µM]	higher PAMPA permeability (in vitro)
Cc1ncsc1-c1ccc(CNC(=O)[C@@H]2C[C@@H](O)CN2C(=O)[C@@H](NC(=O)CN2CCC(CCCOc3cnc4c(C5CCN(C(=O)c6ccc(OC(F)(F)F)cc6)CC5)ncnc4c3)CC2)C(C)(C)C)cc1 [PROTAC 8, 3-Methyl-N-[(4-{3-[(4-{1-[4-(trifluoromethoxy)benzoyl]piperidin-4-yl}pyrido[3,2-d]pyrimidin-7-yl)oxy]propyl}piperidin-1-yl)acetyl]-L-valyl-(4R)-4-hydroxy-N-[4-(4-methyl-1,3-thiazol-5-yl)benzyl]-L-prolinamide]	3.6	3.64	-6,9 cm/s	–6.90 ± 0.061 cm/s	–	–	–	–	–	–	–	–	–	–	–
Cc1ncsc1-c1ccc(CNC(=O)[C@@H]2C[C@@H](O)CN2C(=O)[C@@H](NC(=O)CN(C)CCCCCCOc2cnc3c(C4CCN(C(=O)c5ccc(OC(F)(F)F)cc5)CC4)ncnc3c2)C(C)(C)C)cc1 [PROTAC 7, N-Methyl-N-{6-[(4-{1-[4-(trifluoromethoxy)benzoyl]piperidin-4-yl}pyrido[3,2-d]pyrimidin-7-yl)oxy]hexyl}glycyl-3-methyl-L-valyl-(4R)-4-hydroxy-N-[4-(4-methyl-1,3-thiazol-5-yl)benzyl]-L-prolinamide]	3.7	3.74	-6,67 cm/s	–6.67 ± 0.017 cm/s	40	76	< 25	6.9	–	–	–	–	–	–	–
CN(Cc1cnc2nc(N)nc(N)c2n1)c1ccc(C(=O)N[C@@H](CCC(=O)O)C(=O)O)cc1 [Methotrexate, reference compound]	–	–	–	–	–	–	–	–	0.00427	–	–	–	–	–	–
Cc1ncsc1-c1ccc(CNC(=O)[C@@H]2C[C@@H](O)CN2C(=O)[C@@H](NC(=O)COCCOCCNC(=O)COc2cnc3c(C4CCN(C(=O)c5ccc(OC(F)(F)F)cc5)CC4)ncnc3c2)C(C)(C)C)cc1 [PROTAC 9]	2.7	2.68	-6,3 cm/s	–6.30 ± 0.074 cm/s	–	–	–	–	–	1230	high	6.8 (≈ 7.03 µg/mL)	–	–	–
Cc1ncsc1-c1ccc(CNC(=O)[C@@H]2C[C@@H](O)CN2C(=O)[C@@H](NC(=O)CCOCCNC(=O)COc2cnc3c(C4CCN(C(=O)c5ccc(OC(F)(F)F)cc5)CC4)ncnc3c2)C(C)(C)C)cc1 [PROTAC 3, 3-Methyl-N-[3-(2-{2-[(4-{1-[4-(trifluoromethoxy)benzoyl]piperidin-4-yl}pyrido[3,2-d]pyrimidin-7-yl)oxy]acetamido}ethoxy)propanoyl]-L-valyl-(4R)-4-hydroxy-N-[4-(4-methyl-1,3-thiazol-5-yl)benzyl]-L-prolinamide]	2.7	2.66	-6,21 cm/s	–6.21 ± 0.046 cm/s	–	–	–	–	–	–	–	–	17 (≈ 17.1 µg/mL)	10 to 20 (≈ 10 to 20.1 µg/mL)	–
Cc1ncsc1-c1ccc(CNC(=O)[C@@H]2C[C@@H](O)CN2C(=O)[C@@H](NC(=O)CCCCCCCCOc2cnc3c(C4CCN(C(=O)c5ccc(OC(F)(F)F)cc5)CC4)ncnc3c2)C(C)(C)C)cc1 [PROTAC 1, 3-Methyl-N-{9-[(4-{1-[4-(trifluoromethoxy)benzoyl]piperidin-4-yl}pyrido[3,2-d]pyrimidin-7-yl)oxy]nonanoyl}-L-valyl-(4R)-4-hydroxy-N-[4-(4-methyl-1,3-thiazol-5-yl)benzyl]-L-prolinamide]	3.8	3.81	-8,29 cm/s	–8.29 ± 0.023 cm/s	–	–	–	–	–	–	–	–	< 0.1	< 1	–
Cc1ncsc1-c1ccc(CNC(=O)[C@@H]2C[C@@H](O)CN2C(=O)[C@@H](NC(=O)COCc2cn(CCOc3cnc4c(C5CCN(C(=O)c6ccc(OC(F)(F)F)cc6)CC5)ncnc4c3)nn2)C(C)(C)C)cc1 [PROTAC 4, 3-Methyl-N-{[(1-{2-[(4-{1-[4-(trifluoromethoxy)benzoyl]piperidin-4-yl}pyrido[3,2-d]pyrimidin-7-yl)oxy]ethyl}-1H-1,2,3-triazol-4-yl)methoxy]acetyl}-L-valyl-(4R)-4-hydroxy-N-[4-(4-methyl-1,3-thiazol-5-yl)benzyl]-L-prolinamide]	2.7	–	<-7,94 cm/s	<−7.94 ± 0.20 cm/s	–	–	–	–	–	–	–	–	12.1 (≈ 12.3 µg/mL)	10 to 20 (≈ 10.1 to 20.3 µg/mL)	–
Cc1ncsc1-c1ccc(CNC(=O)[C@@H]2C[C@@H](O)CN2C(=O)[C@@H](NC(=O)CCOCCOCCOc2cnc3c(C4CCN(C(=O)c5ccc(OC(F)(F)F)cc5)CC4)ncnc3c2)C(C)(C)C)cc1 [PROTAC 2, 3-Methyl-N-[3-(2-{2-[(4-{1-[4-(trifluoromethoxy)benzoyl]piperidin-4-yl}pyrido[3,2-d]pyrimidin-7-yl)oxy]ethoxy}ethoxy)propanoyl]-L-valyl-(4R)-4-hydroxy-N-[4-(4-methyl-1,3-thiazol-5-yl)benzyl]-L-prolinamide]	2.9	2.89	-5,42 cm/s	–5.42 ± 0.035 cm/s	–	–	–	–	–	–	–	–	0.64 (≈ 0.634 µg/mL)	< 1	~3 orders of magnitude
Cc1ncsc1-c1ccc(CNC(=O)[C@@H]2C[C@@H](O)CN2C(=O)[C@@H](NC(=O)Cc2ccc(OCCOc3cnc4c(C5CCN(C(=O)c6ccc(OC(F)(F)F)cc6)CC5)ncnc4c3)cc2)C(C)(C)C)cc1 [PROTAC 5, 3-Methyl-N-[(4-{2-[(4-{1-[4-(trifluoromethoxy)benzoyl]piperidin-4-yl}pyrido[3,2-d]pyrimidin-7-yl)oxy]ethoxy}phenyl)acetyl]-L-valyl-(4R)-4-hydroxy-N-[4-(4-methyl-1,3-thiazol-5-yl)benzyl]-L-prolinamide]	3.2	3.25	<-7,56 cm/s	<−7.56 ± 0.30 cm/s	–	–	–	–	–	–	–	–	0.36 (≈ 0.363 µg/mL)	< 1	–
Cc1ncsc1-c1ccc(CNC(=O)[C@@H]2C[C@@H](O)CN2C(=O)[C@@H](NC(=O)Cc2ccc(OCCOc3cnc4c(C5CCN(C(=O)c6ccc(OC(F)(F)F)cc6)CC5)ncnc4c3)cn2)C(C)(C)C)cc1 [PROTAC 6, 3-Methyl-N-[(5-{2-[(4-{1-[4-(trifluoromethoxy)benzoyl]piperidin-4-yl}pyrido[3,2-d]pyrimidin-7-yl)oxy]ethoxy}pyridin-2-yl)acetyl]-L-valyl-(4R)-4-hydroxy-N-[4-(4-methyl-1,3-thiazol-5-yl)benzyl]-L-prolinamide]	3	2.97	-7,28 cm/s	–7.28 ± 0.035 cm/s	–	–	–	–	–	–	–	–	0.52 (≈ 0.525 µg/mL)	< 1	–
